Measurements as given in patent publication US20150250864A1, “ANTI-CANCER VACCINES” (Board of Regents, The University of Texas System, priority 2012, published 2015).

System: T cells in PBMCs
Assay: IFN-γ release by ELISA from PBMC stimulated with peptides or protein
Format: cell-based, human
Settings: stimulated PBMC, FIG. 21A
Description: FIG. 17. T cell stimulation by HERV-K peptides. Peptides (p73-76 and p18-135) or HERV-K SU fusion proteins were used to stimulate PBMC and evaluated in vitro for their ability to stimulate T cells in PBMCs from healthy subjects (ND1007083; left) and/or cancer patients (BC 243; right), based on interferon-γ(IFN-γ) release by ELISA. KLH peptide and GST protein were used as controls. Other negative controls included media only, DMSO, and PBS.
FIG. 18. T cell stimulation by HERV-K peptides. Peptides (p73-76: left; and p18-135: middle) or HERV-K SU fusion proteins (right) were used to stimulate PBMC and evaluated in vitro for their ability to stimulate T cells in PBMCs from healthy subjects and/or cancer patients (BC 243; middle), based on interferon-γ (IFN-γ) release by ELISA. OD values of interferon-γ (IFN-γ) release were compared between normal donors (ND447549, ND1001366, and ND1007083) and cancer patients (OC222, OC 210, OC212, and BC243). OC is ovarian cancer and BC is breast cancer
FIGS. 21A-C. T Cell Stimulation. 9 mer Peptides (HERVK-3, HERVK-4, HERVK-11, and HERVK-18; see Table 1), p73-76 and p18-135 (Table 1 178 and 179), or HERV-K SU fusion proteins were used to stimulate PBMC and evaluated in vitro for their ability to stimulate T cells in PBMCs from healthy subjects and/or cancer patients, based on IFN-γ and Granzyme B release by ELISA. (FIG. 21A) OD values of IFN-γ release were compared in a normal donor (ND291812). (FIG. 21B) OD values of IFN-γ release were compared between a normal donor (ND291817) and an ovarian cancer patient (OC153). (FIG. 21C) OD values of Granzyme B release were compared between a normal donor (ND291817) and an ovarian cancer patient (OC153). Each dot represents an individual clone. Negative controls measured release of effector molecules from cancer cells after treatment with supernatants obtained from PBMCs without stimulation with HERV-K peptides or protein; positive controls were stimulated with PMA/ONO.
Cancer patients were enrolled to evaluate HERV-K as a tumor associated antigen target. Patients provided written informed consent as part of an approved protocol (LAB04-0083) at MD Anderson Cancer Center prior to commencing the studies. Normal healthy donor control blood samples were obtained from Gulf Coast Regional Blood Center, Houston Tex. 40 mL of peripheral blood was obtained from each patient, and peripheral blood mononuclear cells (PBMCs) were isolated by density gradient centrifugation using Histopaque-1077 (Sigma-Aldrich; USA). HLA-A*02 expression in PBMCs obtained from cancer patients and healthy subjects was determined by flow cytometry with PE Mouse anti-human HLA-A2 mAb BB7.2 (BD Pharmingen; San Diego, Calif., USA). Mouse IgG2b was used as an isotype control. PBMCs (5×10^5 cells/well) from either healthy subjects or cancer patients were incubated with Peptide #18-135 ([…]; SEQ ID NO: 178), Peptide #73-76 ([…]; SEQ ID NO: 179) or KLH as control peptide) or proteins (HERV-K env SU protein or GST protein as control) at concentrations of 40 μg/mL in 96-well U-bottom microplates (BD; Franklin Lakes, N.J., USA) in 100 μL of T-cell medium (TCM), consisting of RPMI 1640 (Mediatech; Manassas, Va., USA), 10% human AB serum (Valley Biomedical, Winchester, USA), […] 2-mercaptoethanol, 100 IU/mL interleukin-2 (IL-2), and 0.1 mM MEM nonessential amino acid solution (Invitrogen; Grand Island, N.Y., USA). Half of the TCM was removed and replaced with fresh TCM containing peptides (20 μg/mL) on day 7. After 14 days of culture, the supernatants from cell culture media (PBMC pulsed with peptides or proteins) were harvested and tested for their ability to produce IFN-gamma or IL-2, and granzyme B release was also determined by enzyme-linked immunosorbent assay (ELISA) assay. In order to detect the secreted cytokine in this assay, high-binding plates were coated with 5 μg/ml anti-IFN-γ (Mabtech, Stockholm, Sweden) diluted in PBS buffer at 4° C. overnight. […]

Sequence | IFN-γ release (OD values)
IINLILILV [HERVK-18] | Higher IFN-γ release
YMLVVGNIV [HERVK-3] | Higher IFN-γ release
